Experimental data as given in patent publication US5591758A, “Organic nitrates, processes for their preparation and their use in the treatment of cardiovascular diseases” (Laboratoires Hoechst, SA, priority 1991, dated 1997).
Where “and” joins values, the source holds several entries; their conditions need not be identical. Equal entries are not always repeated. Structures can show the parent of a compound that is named as a salt.

What was measured:
anesthetised pigs = test: Haemodynamic effects on anesthetised pigs; format: in vivo, pigs ("German land" race)
Experimental: Haemodynamic effects of the compounds according to the invention on anesthetised pigs or dogs
Pigs are of "German land" race (20-26 kg) and are used after fasting overnight.
In the case of pigs, sedation, analgesia and anesthesia are induced by ketamine HCl (20 mg/kg i.m.), methonidate HCl (10 mg/kg i.m.), xylacine HCl (3 mg/kg i.m.) and sodium pentobarbitol (25-30 mg/kg as bolus i.v. or 0.16 mg/kg/min as i.v. perfusion).
The pigs or dogs are placed under artificial respiration in ambient air. Analysis of the blood gases (pO2, pCO2) is carried out at regular intervals and oxygen can be supplied via the respirator, if necessary.
The haemodynamic parameters recorded include the left ventricular pressure (LVP; Millar PC350 Tip catheter inserted via the carotid artery), systemic blood pressure (BPs, BPd; full catheter in a femoral artery), the end pressure of the left ventricular diastole (LVEDP), the ventricular contractility (LVPdp/dtmax) and the heart rate (HR).
The haemodynamic variables are recorded continuously for 1 to 3 hours, as a function of the period of action of the compound.
The effects of the compounds studied are shown as the absolute difference with respect to the base value (bv) measured before administration of the compounds and are shown in Table VII (a,b,c).
An antianginal activity is estimated by a fall in the BPs and the LVEDP (fall in venous return).

[1] = system: isolated pulmonary vessel; test: Relaxant activity on blood vessels isolated from guinea pigs (pulmonary artery); conditions: Cavia porcellus; guinea pig pulmonary artery, K+ depolarised, Ca2+ contraction; read-out: IC50 (relaxation of 50%)
Experimental: Determination of the relaxant activity of the compounds according to the invention on blood vessels isolated from guinea pigs.
The pulmonary artery of male guinea pigs (350-500 g) is isolated and cut into spiral tracts (1 mm wide, 15 mm long). […] After having removed the calcium from the tissues (Tyrode without calcium and 0.2 mM EDTA), the tracts are depolarised in the presence of a concentrated solution of K^+ ions (40 mM), which is produced by replacing the NaCl by equimolar amounts of KCl, and a contraction of long duration is then induced by Ca^2+ ions (0.5 mM).
The compounds studied are then introduced into the organ cell in increasing concentrations.
Each compound is tested on at least four vessel spiral tracts.

[2] = system: unanaesthetised hypertensive dogs; test: Haemodynamic effects in unanaesthetised hypertensive dogs; format: in vivo; set-up: Δdp/dt / Δdp/dt average: unit not given beside the values; ΔBPs / ΔBPd / ΔLVEDP / ΔBPs average / ΔBPd average / ΔLVEDP average / ΔHR average: unit not given here; conditions: for ΔBPd average / ΔBPs average / ΔHR average / ΔLVEDP average / Δdp/dt average: n = 3, 3 mg/kg p.o.; for ΔBPd / ΔBPs / ΔHR / ΔLVEDP / Δdp/dt: single dog
Experimental: Haemodynamic effects of the compounds according to the invention in unanaesthetised hypertensive dogs (n=3).
Table VI below and FIG. 1 show more particularly the change in the effect of compound (46) on the various haemodynamic parameters as a function of time, the compound being administered p.o. in a dosage of 3 mg/kg.

[3] = 3 mg/kg p.o., 10 min, monohydrochloride, 3 mg/kg
[4] = 3 mg/kg p.o., 20 min, monohydrochloride, 3 mg/kg
[5] = 3 mg/kg p.o., 30 min, monohydrochloride, 3 mg/kg
[6] = 3 mg/kg p.o., 60 min, monohydrochloride, 3 mg/kg
[7] = 3 mg/kg p.o., 90 min, monohydrochloride, 3 mg/kg
[8] = 3 mg/kg p.o., 120 min, monohydrochloride, 3 mg/kg
[9] = 3 mg/kg p.o., 180 min, monohydrochloride, 3 mg/kg
[10] = 3 mg/kg p.o., 240 min, monohydrochloride, 3 mg/kg
[11] = 3 mg/kg p.o., 300 min, monohydrochloride, 3 mg/kg
[12] = 3 mg/kg p.o., 360 min, monohydrochloride, 3 mg/kg

O=[N+]([O-])O[C@@H]1CO[C@H]2[C@@H]1OC[C@@H]2O [IS-5-MN, isosorbide 5-mononitrate, reference compound]
BPs, difference to base value (anesthetised pigs; pigs, 1,0 mg/kg i.d.): 0 mmHg | LVRDP, difference to base value (anesthetised pigs; pigs, 1,0 mg/kg i.d.): 0 mmHg | BPs (min), period of action (anesthetised pigs; pigs, 3,0 mg/kg i.d.): 60 min | BPs, difference to base value (anesthetised pigs; pigs, 3,0 mg/kg i.d.): -5 mmHg | LVRDP (min), period of action (anesthetised pigs; pigs, 3,0 mg/kg i.d.): 60 min | LVRDP, difference to base value (anesthetised pigs; pigs, 3,0 mg/kg i.d.): -3 mmHg | BPs (min), period of action (anesthetised pigs; pigs, 10,0 mg/kg i.d.): > 120 min | BPs, difference to base value (anesthetised pigs; pigs, 10,0 mg/kg i.d.): -26 mmHg | LVRDP (min), period of action (anesthetised pigs; pigs, 10,0 mg/kg i.d.): > 120 min | LVRDP, difference to base value (anesthetised pigs; pigs, 10,0 mg/kg i.d.): -3,0 mmHg | IC50 [1]: > 100 µM

O=C(CNC(=O)[C@@H]1CSCN1)N[C@H]1CO[C@H]2[C@@H]1OC[C@@H]2O[N+](=O)[O-] [Compound 46, 5-[[2-[[(4-L-Thiazolidinyl)carbonyl]amino]-1oxoethyl]amino]-5-deoxy-2-O-nitro-1,4:3,6-dianhydro-L-iditol monohydrochloride]
BPs (min), period of action (anesthetised pigs; pigs, 3,0 mg/kg i.d.): > 120 min | BPs, difference to base value (anesthetised pigs; pigs, 3,0 mg/kg i.d.): -30 mmHg | LVRDP (min), period of action (anesthetised pigs; pigs, 3,0 mg/kg i.d.): > 120 min | LVRDP, difference to base value (anesthetised pigs; pigs, 3,0 mg/kg i.d.): -5,0 mmHg | IC50 [1]: 38 µM | lowering of left ventricular end-diastolic pressure (LVEDP) ([2]; 3 mg/kg p.o.): significant, pronounced and prolonged | lowering of systolic blood pressure (BPs) ([2]; 3 mg/kg p.o.): significant, pronounced and prolonged | ΔBPd average ([2]; 10 min): -3 | ΔBPs average ([2]; 10 min): -5 | ΔHR average ([2]; 10 min): 3 | ΔLVEDP average ([2]; 10 min): -1 | Δdp/dt average ([2]; 10 min): -167 | ΔBPd average ([2]; 20 min): 0 | ΔBPs average ([2]; 20 min): -2 | ΔHR average ([2]; 20 min): 17 | ΔLVEDP average ([2]; 20 min): -2 | Δdp/dt average ([2]; 20 min): 33 | ΔBPd average ([2]; 30 min): 2 | ΔBPs average ([2]; 30 min): -2 | ΔHR average ([2]; 30 min): 7 | ΔLVEDP average ([2]; 30 min): -1 | Δdp/dt average ([2]; 30 min): 100 | ΔBPd average ([2]; 60 min): 0 | ΔBPs average ([2]; 60 min): -22 | ΔHR average ([2]; 60 min): -7 | ΔLVEDP average ([2]; 60 min): -4 | Δdp/dt average ([2]; 60 min): 33 | ΔBPd average ([2]; 90 min): 3 | ΔBPs average ([2]; 90 min): -28 | ΔHR average ([2]; 90 min): 23 | ΔLVEDP average ([2]; 90 min): -5 | Δdp/dt average ([2]; 90 min): -33 | ΔBPd average ([2]; 120 min): 5 | ΔBPs average ([2]; 120 min): -28 | ΔHR average ([2]; 120 min): 33 | ΔLVEDP average ([2]; 120 min): -6 | Δdp/dt average ([2]; 120 min): 0 | ΔBPd average ([2]; 180 min): 8 | ΔBPs average ([2]; 180 min): -25 | ΔHR average ([2]; 180 min): 32 | ΔLVEDP average ([2]; 180 min): -5 | Δdp/dt average ([2]; 180 min): 0 | ΔBPd average ([2]; 240 min): 8 | ΔBPs average ([2]; 240 min): -30 | ΔHR average ([2]; 240 min): 27 | ΔLVEDP average ([2]; 240 min): -5 | Δdp/dt average ([2]; 240 min): -133 | ΔBPd average ([2]; 300 min): 8 | ΔBPs average ([2]; 300 min): -27 | ΔHR average ([2]; 300 min): 27 | ΔLVEDP average ([2]; 300 min): -2 | Δdp/dt average ([2]; 300 min): 33 | ΔBPd average ([2]; 360 min): 8 | ΔBPs average ([2]; 360 min): -23 | ΔHR average ([2]; 360 min): 13 | ΔLVEDP average ([2]; 360 min): -4 | Δdp/dt average ([2]; 360 min): -133 | ΔBPd [2, 3]: -5 and 0 | ΔBPs [2, 3]: -5 and 0 and -10 | ΔHR [2, 3]: 0 and 10 | ΔLVEDP [2, 3]: -1 and 0 and -2 | Δdp/dt [2, 3]: -100 and 0 and -400 | ΔBPd ([2]; 3 mg/kg p.o., 20 min): 0 | ΔBPs [2, 4]: 0 and -5 | ΔHR [2, 4]: 35 and 0 and 15 | ΔLVEDP [2, 4]: -3 and 0 and -2 | Δdp/dt [2, 4]: 300 and 0 and -200 | ΔBPd [2, 5]: 5 and 0 | ΔBPs [2, 5]: 0 and -5 | ΔHR [2, 5]: 0 and 10 | ΔLVEDP [2, 5]: 0 and -3 | Δdp/dt [2, 5]: 0 and 500 and -200 | ΔBPd [2, 6]: 5 and 0 and -5 | ΔBPs [2, 6]: -25 and -15 | ΔHR [2, 6]: 10 and -10 and -20 | ΔLVEDP [2, 6]: -7 and -3 | Δdp/dt [2, 6]: 0 and 500 and -400 | ΔBPd [2, 7]: 5 and 10 and -5 | ΔBPs [2, 7]: -30 and -25 | ΔHR [2, 7]: 35 and 45 and -10 | ΔLVEDP [2, 7]: -7 and -6 and -3 | Δdp/dt [2, 7]: -200 and 500 and -400 | ΔBPd [2, 8]: 5 and 10 and 0 | ΔBPs [2, 8]: -30 and -25 | ΔHR [2, 8]: 55 and 63 and -20 | ΔLVEDP [2, 8]: -9 and -7 and -2 | Δdp/dt [2, 8]: -400 and 800 | ΔBPd [2, 9]: 10 and 15 and 0 | ΔBPs [2, 9]: -15 and -25 and -35 | ΔHR [2, 9]: 35 and 40 and 20 | ΔLVEDP [2, 9]: -7 and -4 | Δdp/dt [2, 9]: -300 and 500 and -200 | ΔBPd [2, 10]: 10 and 15 and 0 | ΔBPs [2, 10]: -15 and -35 and -40 | ΔHR [2, 10]: 40 and 20 | ΔLVEDP [2, 10]: -7 and -5 and -4 | Δdp/dt [2, 10]: -500 and 500 and -400 | ΔBPd [2, 11]: 10 and 15 and 0 | ΔBPs [2, 11]: -15 and -45 and -40 | ΔHR [2, 11]: 45 and 40 and -5 | ΔLVEDP [2, 11]: -4 and 0 and -3 | Δdp/dt [2, 11]: -300 and 800 and -400 | ΔBPd [2, 12]: 10 and 15 and 0 | ΔBPs [2, 12]: -10 and -25 and -35 | ΔHR [2, 12]: 15 and 10 | ΔLVEDP [2, 12]: -5 and -3 and -4 | Δdp/dt [2, 12]: -500 and 500 and -400
